According to PMC11847541, “Liver fatty acid binding protein FABP1 transfers substrates to cytochrome P450 4A11 for catalysis” (The Journal of Biological Chemistry, 2025):

Biological target: T1, P450 4A11 (Homo sapiens, UniProt Q02928)
T1 sequence (Q02928 5-519): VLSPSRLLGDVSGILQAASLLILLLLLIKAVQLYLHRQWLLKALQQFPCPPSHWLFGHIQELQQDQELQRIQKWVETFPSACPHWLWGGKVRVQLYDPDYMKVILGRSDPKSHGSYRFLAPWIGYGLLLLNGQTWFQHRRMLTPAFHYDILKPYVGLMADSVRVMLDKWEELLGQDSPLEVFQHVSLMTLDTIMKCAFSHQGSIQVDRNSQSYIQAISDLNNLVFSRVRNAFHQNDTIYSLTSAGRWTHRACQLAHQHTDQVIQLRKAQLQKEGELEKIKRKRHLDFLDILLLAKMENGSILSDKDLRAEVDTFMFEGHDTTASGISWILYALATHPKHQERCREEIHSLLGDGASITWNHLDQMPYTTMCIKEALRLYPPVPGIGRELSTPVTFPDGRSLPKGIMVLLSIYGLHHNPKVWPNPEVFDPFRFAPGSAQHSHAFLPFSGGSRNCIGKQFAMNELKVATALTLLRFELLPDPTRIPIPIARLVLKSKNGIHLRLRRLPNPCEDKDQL
Experiment: Ketoconazole trap experiment for lipid koff from P450 4A11
Assay type: binding
Parameters: made in house; host or cells: E. coli
Description: To assess the rates of lipid egress from P450 4A11 (k-1, k-3), lipids were tested in conjunction with the general P450 inhibitor ketoconazole in a “trap experiment” as we have recently described to estimate koff rates for P450–sterol complexes ([27], [28]). P450–lipid complexes were rapidly mixed with ketoconazole, and the spectral shift from 390 nm (substrate bound, type I) to 418 nm (inhibitor bound, type II) P450 was monitored over time (Fig. 9A, progression from blue to red curve). This spectral shift arises from the direct interaction of the azole nitrogen lone pair with the heme iron (forming a hexacoordinated heme species). This experiment is performed with an excess of ketoconazole (100 μM) to facilitate rapid capture of unliganded P450 yielded at the moment of lipid dissociation, such that ketoconazole kon approximates the lipid koff.
(The concentration of lipid added during preincubation reflects the affinity of the complex determined in equilibrium binding titrations; Fig. 8). The first phase of each trace relates to the ketoconazole capture of the unliganded enzyme (the majority–but not all–P450 was substrate bound at equilibrium), and the second phase correlates to the capture of enzyme yielded by the egress of the bound lipid (i.e., estimate of koff). […] The rates extracted for the second phase (koff) were 0.070 ± 0.006 s^−1 (k-3) and 0.20 ± 0.01 s^−1 (k-1), respectively.
Determination of P450 4A11 koff rates with lipids was performed using a ketoconazole “trap” experiment by adapting previously published protocols ([27], [28]). Solutions of (A) ketoconazole (200 μM) and (B) P450 4A11 (4 μM) and either palmitate (20 μM) or 16-OH palmitate (8 μM) were prepared (2 ml each, all in 100 mM potassium phosphate buffer [pH 7.4]) and loaded into the drive syringes of an OLIS stopped-flow spectrophotometer with the same procedure described for the P450 4A11 kon determination (aforementioned). The experiment was initiated by mixing equal volumes of each solution together, and the rate of ketoconazole binding to P450 is given by ΔA418-A390 (displacement of lipid [decrease in A390] because of ketoconazole binding [increase in A418]) and is a maximum value for the rate at which the P450–lipid complex dissociated (koff) (Fig. S14).
Figure S14. Absorbance traces used to determine P450 4A11 palmitate koff rate. The basis of the ketoconazole trap experiment is the spectral transition from substrate-bound (“Type I” shift, A390 (blue trace)) to inhibitor-bound (“Type II” shift, A418 (red trace)) P450 (Fig. 9A). The formation of ketoconazole-bound P450 (inhibitor complex) from palmitate-bound P450 (substrate complex) is over the course of the experiment shown above. The rate of formation of inhibitor-bound P450 is subtracted from the rate of decay of substrate-bound P450, and the resulting plot (Fig. 9D) is fit to a biexponential equation to estimate the dissociation rate (koff) of palmitate from the P450 4A11.

[1] = P450 4A11 2 μM preincubated with lipid, ketoconazole 100 μM

Row | Structure (SMILES) | first phase rate (k1), ketoconazole capture of unliganded enzyme [1] [s⁻¹] | second phase rate = koff from P450 4A11 [1] | kon to P450 4A11 (k3) (calculated from koff and Kd) | koff (P450 4A11 2 μM preincubated with lipid, ketoconazole 100 μM, read-out: second phase rate = koff from P450 4A11) [s⁻¹] | Kd (quotient of experimentally determined rates, read-out: Kd estimate for P450 4A11 as koff/kon) [µM]
1 | O=C(O)CCCCCCCCCCCCCCCO [16-OH Palmitate (C16), 16-hydroxypalmitate] | 1.3 ± 0.4 | 0.070 ± 0.006 (k-3) s^−1 | 2.6 × 10^5 (k3) M^−1 s^−1 | – | –
2 | CCCCCCCCCCCCCCCC(=O)O [Palmitate (C16), palmitate] | 2.9 ± 0.1 | – | – | 0.2 ± 0.01 | 4.8
